Experimental data: ChEMBL document CHEMBL1909046, “DrugMatrix in vitro pharmacology data”

Key:
[1] = DRUGMATRIX: GABAA, Muscimol, Central radioligand binding (ligand: [3H] Muscimol); type: cell membranes, Rattus norvegicus, Wistar, Brain, Membrane; details: Not Active = under 50% inhibition at 10 µM
[2] = biological target: T1, Calcitonin receptor (Homo sapiens, UniProt P30988); type: cell membranes, Membrane; details: t47d; also: in other assays of this panel Not Active means under 50% inhibition at 10 µM
T1 sequence (P30988 whole entry): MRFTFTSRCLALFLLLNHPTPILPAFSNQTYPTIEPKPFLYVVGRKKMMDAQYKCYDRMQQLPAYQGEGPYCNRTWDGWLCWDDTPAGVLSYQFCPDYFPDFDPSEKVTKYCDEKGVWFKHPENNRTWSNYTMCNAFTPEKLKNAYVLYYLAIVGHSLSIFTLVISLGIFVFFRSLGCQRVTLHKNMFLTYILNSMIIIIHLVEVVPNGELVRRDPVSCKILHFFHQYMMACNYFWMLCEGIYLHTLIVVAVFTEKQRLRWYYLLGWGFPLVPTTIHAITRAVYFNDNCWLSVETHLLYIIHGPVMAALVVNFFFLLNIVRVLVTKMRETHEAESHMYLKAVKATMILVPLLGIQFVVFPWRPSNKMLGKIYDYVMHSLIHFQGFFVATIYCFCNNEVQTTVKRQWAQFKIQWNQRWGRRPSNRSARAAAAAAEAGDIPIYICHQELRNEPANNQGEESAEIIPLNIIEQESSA

[3] = biological target: Sodium-dependent dopamine transporter (Homo sapiens, UniProt Q01959); test: DRUGMATRIX: Dopamine Transporter radioligand binding (ligand: [125I] RTI-55); type: cell membranes, CHO-K1, Membrane; details: Not Active = under 50% inhibition at 10 µM
[4] = DRUGMATRIX: Serotonin (5-Hydroxytryptamine) 5-HT3 radioligand binding (ligand: [3H] GR-65630); type: cell membranes, Membrane; details: hek293; Not Active = under 50% inhibition at 10 µM
[5] = DRUGMATRIX: Glutamate, NMDA, Phencyclidine radioligand binding (ligand: [3H] TCP); type: cell membranes, Rattus norvegicus, Wistar, Cerebral cortex, Membrane; details: Not Active = under 50% inhibition at 10 µM
[6] = DRUGMATRIX: Phorbol Ester radioligand binding (ligand: [3H] PDBu); type: cell membranes, Mus musculus, ICR, Brain, Membrane; details: Not Active = under 50% inhibition at 10 µM
[7] = biological target: Protein phosphatase 3 catalytic subunit alpha (Homo sapiens, UniProt Q08209); set-up: species or system Escherichia coli;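 also: inhibition of calcineurin (PP2B) enzyme activity, measured with DiFMUP as the substrate; in other assays of this panel Not Active means under 50% inhibition at 10 µM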
[8] = biological target: Tyrosine-protein kinase Fyn (Homo sapiens, UniProt P06241); test: biochemical; type: cell-based, Insect cells;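 also: enzymatic inhibition of Fyn kinase activity measured with Poly(Glu:Tyr) as the phosphorylation substrate; in other assays of this panel Not Active means under 50% inhibition at 10 µM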
[9] = biological target: cGMP-specific 3',5'-cyclic phosphodiesterase (Homo sapiens, UniProt O76074); test: DRUGMATRIX: Phosphodiesterase PDE5 enzyme inhibition (substrate: [3H]cGMP + cGMP); type: tissue-based, Platelet; details: platelet; Not Active = under 50% inhibition at 10 µM
[10] = biological target: Mitogen-activated protein kinase 14 (Homo sapiens, UniProt Q16539); set-up: species or system Escherichia coli;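 also: inhibition of p38alpha enzyme activity in a biochemical kinase assay, with myelin basic protein serving as substrate; in other assays of this panel Not Active means under 50% inhibition at 10 µM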
[11] = DRUGMATRIX: Sigma2 radioligand binding (ligand: [3H] Ifenprodil); type: cell membranes, Rattus norvegicus, Wistar, Brain, Membrane; details: Not Active = under 50% inhibition at 10 µM
[12] = DRUGMATRIX: Glutamate, AMPA radioligand binding (ligand: [3H] AMPA); type: cell membranes, Rattus norvegicus, Wistar, Cerebral cortex, Membrane; details: Not Active = under 50% inhibition at 10 µM
[13] = biological target: D(1A) dopamine receptor (Homo sapiens, UniProt P21728); test: DRUGMATRIX: Dopamine D1 radioligand binding (ligand: [3H] SCH-23390); type: cell membranes, CHO, Membrane; details: cho; Not Active = under 50% inhibition at 10 µM
[14] = biological target: 5-hydroxytryptamine receptor 4 (Cavia porcellus, UniProt O70528); type: cell membranes, Dunkin-Hartley, Striatum, Membrane; also: in other assays of this panel Not Active means under 50% inhibition at 10 µM
[15] = biological target: Insulin receptor (Rattus norvegicus, UniProt P15127); type: cell membranes, Wistar, Liver, Membrane; also: in other assays of this panel Not Active means under 50% inhibition at 10 µM
[16] = DRUGMATRIX: Sodium/nucleoside co-transporter radioligand binding (ligand: nitrobenzylthioinosine); type: cell membranes, Cavia porcellus, Dunkin-Hartley, Cerebral cortex, Membrane; details: Not Active = under 50% inhibition at 10 µM
[17] = biological target: T2, C-X-C chemokine receptor type 1 (Homo sapiens, UniProt P25024); also: in other assays of this panel Not Active means under 50% inhibition at 10 µM
T2 sequence (P25024 whole entry): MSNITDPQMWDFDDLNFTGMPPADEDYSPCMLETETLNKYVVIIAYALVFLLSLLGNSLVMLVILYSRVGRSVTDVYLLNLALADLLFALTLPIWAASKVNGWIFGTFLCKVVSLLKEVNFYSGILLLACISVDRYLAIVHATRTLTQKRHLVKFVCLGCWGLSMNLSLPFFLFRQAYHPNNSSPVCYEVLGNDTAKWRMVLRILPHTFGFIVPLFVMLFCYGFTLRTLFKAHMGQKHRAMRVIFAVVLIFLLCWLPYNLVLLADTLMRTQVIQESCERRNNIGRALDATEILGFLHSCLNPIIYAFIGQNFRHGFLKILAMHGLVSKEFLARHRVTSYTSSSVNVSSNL

[18] = biological target: T3, Neutrophil elastase (Homo sapiens, UniProt P08246); type: tissue-based
T3 sequence (P08246 whole entry): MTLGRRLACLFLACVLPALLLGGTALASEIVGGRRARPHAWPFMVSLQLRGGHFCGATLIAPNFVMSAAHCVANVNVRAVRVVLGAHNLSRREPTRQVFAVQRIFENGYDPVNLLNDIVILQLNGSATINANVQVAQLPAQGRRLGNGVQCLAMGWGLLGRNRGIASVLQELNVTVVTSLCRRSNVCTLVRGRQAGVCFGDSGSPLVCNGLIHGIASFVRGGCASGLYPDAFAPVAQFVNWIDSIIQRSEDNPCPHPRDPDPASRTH

[19] = biological target: Mitogen-activated protein kinase 1 (Homo sapiens, UniProt P28482); test: DRUGMATRIX: Protein Serine/Threonine Kinase, ERK2 enzyme inhibition (substrate: Myelin Basic Protein); set-up: species or system Escherichia coli; details: Not Active = under 50% inhibition at 10 µM
[20] = biological target: T4, Muscarinic acetylcholine receptor M4 (Homo sapiens, UniProt P08173); type: cell membranes, CHO-K1, Membrane; also: in other assays of this panel Not Active means under 50% inhibition at 10 µM
T4 sequence (P08173 whole entry): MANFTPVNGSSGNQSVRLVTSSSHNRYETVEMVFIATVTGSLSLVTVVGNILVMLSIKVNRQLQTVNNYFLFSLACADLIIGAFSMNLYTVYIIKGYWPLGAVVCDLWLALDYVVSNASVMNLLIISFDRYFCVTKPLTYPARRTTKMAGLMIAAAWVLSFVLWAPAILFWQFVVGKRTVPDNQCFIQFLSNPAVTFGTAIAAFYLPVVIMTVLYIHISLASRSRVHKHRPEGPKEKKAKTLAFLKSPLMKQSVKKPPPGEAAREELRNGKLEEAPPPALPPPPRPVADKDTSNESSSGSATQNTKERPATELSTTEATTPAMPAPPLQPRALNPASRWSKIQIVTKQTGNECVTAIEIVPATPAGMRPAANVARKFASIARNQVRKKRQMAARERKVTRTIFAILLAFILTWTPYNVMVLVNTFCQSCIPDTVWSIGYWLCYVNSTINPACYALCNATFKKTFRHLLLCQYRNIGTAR

Chain of Mitogen-activated protein kinase 14 (Q16539 whole entry): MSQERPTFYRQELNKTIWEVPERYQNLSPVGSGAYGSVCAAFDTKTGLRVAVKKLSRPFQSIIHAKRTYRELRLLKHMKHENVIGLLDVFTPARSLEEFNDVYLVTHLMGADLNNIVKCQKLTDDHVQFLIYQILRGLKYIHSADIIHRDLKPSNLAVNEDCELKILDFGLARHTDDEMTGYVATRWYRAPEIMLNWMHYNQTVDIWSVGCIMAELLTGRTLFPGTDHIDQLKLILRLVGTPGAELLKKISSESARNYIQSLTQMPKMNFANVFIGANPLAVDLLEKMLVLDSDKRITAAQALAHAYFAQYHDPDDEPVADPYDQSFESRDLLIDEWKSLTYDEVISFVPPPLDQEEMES
Chain of Mitogen-activated protein kinase 1 (P28482 whole entry): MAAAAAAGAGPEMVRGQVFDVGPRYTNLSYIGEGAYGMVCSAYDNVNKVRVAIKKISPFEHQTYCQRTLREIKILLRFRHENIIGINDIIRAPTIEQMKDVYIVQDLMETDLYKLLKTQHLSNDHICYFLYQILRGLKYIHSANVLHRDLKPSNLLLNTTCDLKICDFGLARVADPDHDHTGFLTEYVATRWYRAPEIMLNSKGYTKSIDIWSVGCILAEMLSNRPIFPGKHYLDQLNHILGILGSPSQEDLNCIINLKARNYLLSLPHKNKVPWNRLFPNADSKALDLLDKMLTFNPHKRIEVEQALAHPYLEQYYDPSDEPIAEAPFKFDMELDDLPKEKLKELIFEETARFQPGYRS
Chain of Sodium-dependent dopamine transporter (Q01959 whole entry): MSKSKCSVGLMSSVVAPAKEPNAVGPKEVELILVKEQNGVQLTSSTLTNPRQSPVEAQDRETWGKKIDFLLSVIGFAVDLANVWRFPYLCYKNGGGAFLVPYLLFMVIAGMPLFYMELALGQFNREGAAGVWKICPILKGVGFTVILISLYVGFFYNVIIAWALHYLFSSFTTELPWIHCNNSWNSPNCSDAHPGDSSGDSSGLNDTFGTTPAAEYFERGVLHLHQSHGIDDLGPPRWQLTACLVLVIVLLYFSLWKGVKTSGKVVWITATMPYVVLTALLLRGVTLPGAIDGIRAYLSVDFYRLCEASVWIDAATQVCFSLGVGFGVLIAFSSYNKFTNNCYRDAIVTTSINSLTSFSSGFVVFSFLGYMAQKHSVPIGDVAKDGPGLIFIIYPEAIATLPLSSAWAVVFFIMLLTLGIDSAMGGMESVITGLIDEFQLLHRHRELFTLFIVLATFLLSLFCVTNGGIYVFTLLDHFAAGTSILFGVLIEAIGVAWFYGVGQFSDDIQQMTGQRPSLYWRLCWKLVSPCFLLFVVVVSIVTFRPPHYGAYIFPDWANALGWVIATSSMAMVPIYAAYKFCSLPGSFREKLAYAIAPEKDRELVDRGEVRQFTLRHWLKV
Chain of Insulin receptor (P15127 27-759 limits assumed): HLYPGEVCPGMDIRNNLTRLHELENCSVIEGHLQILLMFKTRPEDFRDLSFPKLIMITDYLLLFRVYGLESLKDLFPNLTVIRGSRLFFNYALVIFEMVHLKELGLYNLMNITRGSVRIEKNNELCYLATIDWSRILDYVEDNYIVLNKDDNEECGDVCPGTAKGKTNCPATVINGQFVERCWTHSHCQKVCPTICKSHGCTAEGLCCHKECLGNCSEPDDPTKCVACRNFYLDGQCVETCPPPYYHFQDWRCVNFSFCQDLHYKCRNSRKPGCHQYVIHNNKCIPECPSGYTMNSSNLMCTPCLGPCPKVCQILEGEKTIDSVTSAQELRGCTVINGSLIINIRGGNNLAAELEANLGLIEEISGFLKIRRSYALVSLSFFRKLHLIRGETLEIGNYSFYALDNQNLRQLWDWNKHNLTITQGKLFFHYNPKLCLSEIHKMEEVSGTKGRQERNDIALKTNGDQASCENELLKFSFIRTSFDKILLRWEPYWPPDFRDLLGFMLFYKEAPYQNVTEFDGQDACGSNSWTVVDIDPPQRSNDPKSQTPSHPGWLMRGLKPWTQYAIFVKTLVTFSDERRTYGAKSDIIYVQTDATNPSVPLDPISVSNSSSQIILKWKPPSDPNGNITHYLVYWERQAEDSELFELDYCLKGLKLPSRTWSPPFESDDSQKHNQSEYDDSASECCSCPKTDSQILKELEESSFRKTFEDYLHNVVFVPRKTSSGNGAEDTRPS
Chain of Insulin receptor (P15127 764-1383 limits assumed): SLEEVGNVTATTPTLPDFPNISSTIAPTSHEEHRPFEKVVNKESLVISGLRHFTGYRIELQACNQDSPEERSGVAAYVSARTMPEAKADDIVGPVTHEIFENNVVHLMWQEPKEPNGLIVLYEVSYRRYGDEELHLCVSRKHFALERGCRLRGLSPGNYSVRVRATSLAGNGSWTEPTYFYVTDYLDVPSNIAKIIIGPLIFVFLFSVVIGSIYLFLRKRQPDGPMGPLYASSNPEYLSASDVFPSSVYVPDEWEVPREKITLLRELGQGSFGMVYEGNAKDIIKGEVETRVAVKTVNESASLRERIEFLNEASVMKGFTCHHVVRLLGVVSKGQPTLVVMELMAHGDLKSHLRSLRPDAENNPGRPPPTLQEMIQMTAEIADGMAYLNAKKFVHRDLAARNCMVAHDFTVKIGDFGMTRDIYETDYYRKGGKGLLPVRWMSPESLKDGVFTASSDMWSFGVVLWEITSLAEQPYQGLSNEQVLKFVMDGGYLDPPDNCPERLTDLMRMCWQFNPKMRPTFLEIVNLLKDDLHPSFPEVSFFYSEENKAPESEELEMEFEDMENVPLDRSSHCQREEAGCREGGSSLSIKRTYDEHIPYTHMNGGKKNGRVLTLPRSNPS
Chain of Tyrosine-protein kinase Fyn (P06241 whole entry): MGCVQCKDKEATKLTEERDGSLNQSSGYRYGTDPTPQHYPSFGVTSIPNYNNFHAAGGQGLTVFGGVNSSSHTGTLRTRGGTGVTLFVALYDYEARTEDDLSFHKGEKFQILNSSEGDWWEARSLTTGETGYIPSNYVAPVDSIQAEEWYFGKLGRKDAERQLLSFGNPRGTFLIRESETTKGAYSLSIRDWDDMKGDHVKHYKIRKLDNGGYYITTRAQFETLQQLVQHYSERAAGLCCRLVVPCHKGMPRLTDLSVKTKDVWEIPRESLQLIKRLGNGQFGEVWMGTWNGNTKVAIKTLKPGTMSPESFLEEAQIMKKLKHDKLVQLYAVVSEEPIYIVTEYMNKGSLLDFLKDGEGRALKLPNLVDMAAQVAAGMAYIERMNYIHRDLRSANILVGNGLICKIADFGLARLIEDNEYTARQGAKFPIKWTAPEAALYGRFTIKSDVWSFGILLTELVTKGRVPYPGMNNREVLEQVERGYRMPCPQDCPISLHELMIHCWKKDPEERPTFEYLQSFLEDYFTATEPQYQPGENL
Chain of 5-hydroxytryptamine receptor 4 (O70528 whole entry): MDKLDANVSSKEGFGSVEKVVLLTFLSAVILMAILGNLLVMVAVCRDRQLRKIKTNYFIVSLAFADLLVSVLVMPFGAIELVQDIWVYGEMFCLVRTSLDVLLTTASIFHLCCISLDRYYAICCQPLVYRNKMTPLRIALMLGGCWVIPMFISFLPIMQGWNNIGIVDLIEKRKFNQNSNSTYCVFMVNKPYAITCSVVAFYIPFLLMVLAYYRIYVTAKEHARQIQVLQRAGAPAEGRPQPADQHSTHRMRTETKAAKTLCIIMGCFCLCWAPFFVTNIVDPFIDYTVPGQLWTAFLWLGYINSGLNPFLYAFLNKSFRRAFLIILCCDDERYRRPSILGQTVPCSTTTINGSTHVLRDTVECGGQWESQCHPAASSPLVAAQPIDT
Chain of D(1A) dopamine receptor (P21728 whole entry): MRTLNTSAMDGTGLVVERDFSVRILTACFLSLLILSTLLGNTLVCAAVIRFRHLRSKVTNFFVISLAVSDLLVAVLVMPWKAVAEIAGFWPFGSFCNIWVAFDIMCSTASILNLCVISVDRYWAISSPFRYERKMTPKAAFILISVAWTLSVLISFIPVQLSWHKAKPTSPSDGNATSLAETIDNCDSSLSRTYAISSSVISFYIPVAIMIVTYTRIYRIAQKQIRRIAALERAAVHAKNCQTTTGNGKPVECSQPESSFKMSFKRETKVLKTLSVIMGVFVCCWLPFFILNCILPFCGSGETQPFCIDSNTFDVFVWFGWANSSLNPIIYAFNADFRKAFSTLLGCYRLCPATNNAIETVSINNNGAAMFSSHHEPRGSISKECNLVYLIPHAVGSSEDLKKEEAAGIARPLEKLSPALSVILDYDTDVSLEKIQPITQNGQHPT

Structure (SMILES): O=[N+]([O-])c1cc([As](=O)(O)O)ccc1O [ROXARSONE]
- IC50 [1]: Not Active
- Ki [1]: Not Active
- IC50 [2]: Not Active
- Ki [2]: Not Active
- IC50 ([3]; cho-k1): Not Active
- Ki ([3]; cho-k1): Not Active
- IC50 [4]: Not Active
- Ki [4]: Not Active
- IC50 [5]: Not Active
- Ki [5]: Not Active
- IC50 [6]: Not Active
- Ki [6]: Not Active
- IC50 [7]: Not Active
- Ki [7]: Not Active
- IC50 ([8]; insect cells): Not Active
- Ki ([8]; insect cells): Not Active
- IC50 [9]: Not Active
- Ki [9]: Not Active
- IC50 [10]: Not Active
- Ki [10]: Not Active
- IC50 [11]: Not Active
- Ki [11]: Not Active
- IC50 [12]: Not Active
- Ki [12]: Not Active
- IC50 [13]: Not Active
- Ki [13]: Not Active
- IC50 [14]: Not Active
- Ki [14]: Not Active
- IC50 [15]: Not Active
- Ki [15]: Not Active
- IC50 [16]: Not Active
- Ki [16]: Not Active
- IC50 [17]: Not Active
- Ki [17]: Not Active
- IC50 [18]: Not Active
- Ki [18]: Not Active
- IC50 [19]: Not Active
- Ki [19]: Not Active
- IC50 ([20]; cho-k1): Not Active
- Ki ([20]; cho-k1): Not Active

Structure (SMILES): COc1ccc(CCN2CCC(Nc3nc4ccccc4n3Cc3ccc(F)cc3)CC2)cc1 [ASTEMIZOLE]
- IC50 [2]: Not Active
- IC50 [7]: Not Active
- IC50 ([8]; read-out: IC50): 2850 nM
- IC50 [9]: Not Active
- IC50 [10]: Not Active
- IC50 [14]: Not Active
- IC50 [15]: Not Active
- IC50 [17]: Not Active
- IC50 [18]: Not Active
- IC50 [19]: Not Active
- IC50 ([20]; read-out: IC50): 1860 nM
- Ki ([20]; read-out: Ki): 259 nM

Structure (SMILES): O=C(CCCN1CCC(O)(c2ccc(Cl)cc2)CC1)c1ccc(F)cc1 [HALOPERIDOL]
- IC50 [2]: Not Active
- IC50 [7]: Not Active
- IC50 ([8]; insect cells): Not Active
- IC50 [9]: Not Active
- IC50 [10]: Not Active
- IC50 [14]: Not Active
- IC50 [15]: Not Active
- IC50 [17]: Not Active
- IC50 [18]: Not Active
- IC50 [19]: Not Active
- IC50 ([20]; cho-k1): Not Active

Structure (SMILES): CN(C)CCCN1c2ccccc2CCc2ccc(Cl)cc21 [CLOMIPRAMINE]
- IC50 [2]: Not Active
- IC50 [7]: Not Active
- IC50 ([8]; insect cells): Not Active
- IC50 [9]: Not Active
- IC50 [10]: Not Active
- IC50 [14]: Not Active
- IC50 [15]: Not Active
- IC50 [17]: Not Active
- IC50 [18]: Not Active
- IC50 [19]: Not Active
- IC50 ([20]; read-out: IC50): 91 nM
- Ki ([20]; read-out: Ki): 13 nM

Structure (SMILES): CN1CCN2c3ccccc3Cc3ccccc3C2C1 (centres undefined) [MIANSERIN]
- IC50 [2]: Not Active
- IC50 ([3]; cho-k1): Not Active
- IC50 [7]: Not Active
- IC50 ([8]; insect cells): Not Active
- IC50 [9]: Not Active
- IC50 [10]: Not Active
- IC50 [14]: Not Active
- IC50 [15]: Not Active
- IC50 [17]: Not Active
- IC50 [18]: Not Active
- IC50 [19]: Not Active
- IC50 ([20]; read-out: IC50): 2070 nM
- Ki ([20]; read-out: Ki): 288 nM

Structure (SMILES): CSc1ccc2c(c1)N(CCC1CCCCN1C)c1ccccc1S2 (centres undefined) [THIORIDAZINE]
- IC50 [2]: Not Active
- IC50 [7]: Not Active
- IC50 ([8]; read-out: IC50): 5050 nM
- IC50 [9]: Not Active
- IC50 [10]: Not Active
- IC50 [14]: Not Active
- IC50 [15]: Not Active
- IC50 [17]: Not Active
- IC50 [18]: Not Active
- IC50 [19]: Not Active

Structure (SMILES): Clc1ccccc1C(c1ccccc1)(c1ccccc1)n1ccnc1 [CLOTRIMAZOLE]
- IC50 [2]: Not Active
- IC50 ([3]; read-out: IC50): 5580 nM
- Ki ([3]; read-out: Ki): 4430 nM
- IC50 [7]: Not Active
- IC50 ([8]; read-out: IC50): 31900 nM
- IC50 [9]: Not Active
- IC50 [10]: Not Active
- IC50 [14]: Not Active
- IC50 [15]: Not Active
- IC50 [17]: Not Active
- IC50 [18]: Not Active
- IC50 [19]: Not Active
- Ki ([20]; read-out: Ki): 1640 nM

Structure (SMILES): CC(C)(O)c1ccccc1CC[C@@H](SCC1(CC(=O)O)CC1)c1cccc(/C=C/c2ccc3ccc(Cl)cc3n2)c1 [MONTELUKAST]
- IC50 [2]: Not Active
- IC50 [7]: Not Active
- IC50 ([8]; read-out: IC50): 4700 nM
- IC50 [9]: Not Active
- IC50 ([10]; read-out: IC50): 856 nM
- IC50 [14]: Not Active
- IC50 [15]: Not Active
- IC50 [17]: Not Active
- IC50 [18]: Not Active
- IC50 [19]: Not Active
- IC50 ([20]; cho-k1): Not Active

Structure (SMILES): COc1cccc(C2(O)CCCCC2CN(C)C)c1 (centres undefined) [TRAMADOL]
- IC50 [2]: Not Active
- IC50 ([3]; cho-k1): Not Active
- IC50 [7]: Not Active
- IC50 ([8]; insect cells): Not Active
- IC50 [9]: Not Active
- IC50 [10]: Not Active
- IC50 [14]: Not Active
- IC50 [15]: Not Active
- IC50 [17]: Not Active
- IC50 [18]: Not Active
- IC50 [19]: Not Active
- IC50 ([20]; cho-k1): Not Active
